Biological target: hKv1.5 (Homo sapiens, UniProt P22460)
Test: Kv1.5 Autopatch Electrophysiology (whole cell patch-clamp)
Assay type: cell-based
Details: compound at 1µM, room temperature (22-24°C), held at -80mV, step to 0mV for 1000ms, total charge measured
Procedure: The external bathing solution contained (in mM): 150 NaCl, 10 KCl, […], 3 MgCl2, 1 CaCl2, 10 HEPES, pH 7.4. Patch pipettes were filled with an electrode solution of composition (in mM): 160 KCl, 0.5 MgCl2, 10 HEPES, 1 EGTA, pH 7.4 with KOH.
Compounds were dissolved in DMSO (100 %) and made up in the external bather at a concentration of 1µM. All experiments were conducted at room temperature (22-24°C).
A cell suspension (10 ml), with a density of 100,000 cells/ml, was aliquoted into a 15ml centrifuge tube and transferred to an incubator (37°C, 5% CO2) for approximately one hour before use. Following 60 min incubation, a tube was taken and centrifuged at 1000 rpm for 4 mins at room temperature. 9.5 ml supernatant was thence discarded, leaving a cell pellet at the bottom of the tube. The pellet was then resuspended using 100 µl of cold (4 °C), filtered (0.22 µm), 0.2 % BSA/bather solution (0.02g BSA/10ml bather). The bottom of the tube was manually agitated gently until the solution became cloudy with cells. The 100 µl cell resuspension solution was then stored on the bench at 4 °C (using a Peltier-based temperature control device) until used.
A length of capillary glass (1B150F-4, WPI) was dipped into the cell suspension solution, such that - 3 cm column of fluid was taken up by capillary action. A Ag/AgCl wire was dropped into the non-dipped end of the capillary also. The outside of the solution-filled end of the capillary was then dried and the capillary was loaded into the AutoPatch™. Borosilicate glass patch pipettes (from 1.5mm OD, thin-walled filamented, GC150-TF capillary glass, Harvard) were pulled using a DMZ pipette puller (Zeitz Instruments), and were back-filled using the internal pipette solution, being careful that no bubbles remain at the tip or in the body of the pipette. Patch pipettes typically had resistances of 2.3-3.5 MΩ. Once filled, the pipette tip and a proportion of the shaft (- 15 mm) were dipped into Sigmacote (Sigma). The recording pipette was then loaded into the AutoPatch™.
Automated patch-clamping was initiated by the operator, but thereafter AutoPatch.exe continued the experiment providing that pre-set conditions and criteria were satisfied.
Whole cell patch-clamp recordings were made using the AutoPatch™ rig, which incorporated an EPC9 amplifier (HEKA, Germany) under control of Pulse software (v8.54, HEKA, Germany), a motion controller with 2 translators (Newport, UK), valve controller (VF1) and a c-level suction device all at room temperature (22-24°C). This equipment was completely under the control of AutoPatch.exe and operator intervention was only made when there was a requirement to refill the drug reservoirs or to prevent the loss of a cell due to a technical error. Cells with an Rseries greater than 18 MΩ were discounted from the experiment.
Qualification stages prior to perfusion and drug application ensured that the observed current met the criteria for the experiment. Only those cells with an IK > 500 pA were used for experiments. Cells were continuously perfused with external solution at a flow rate of 1.8-2 ml/minute. […] Online analysis of the hKv1.5 current during the application of compounds was performed by the AutoPatch™ software. Voltage-step protocols and analysis of data was performed as described for conventional electrophysiology.
Electrophysiology voltage-step protocols and analysis of data was performed as follows. Data was sampled at 5kHz, and filtered with a -3 dB bandwidth of 2.5kHz. Cells were held at a voltage of -80mV. Currents were evoked to a voltage step for 1000ms in duration at 0mV every 5s. Currents were analysed using Pulsefit software (v8.54, HEKA, Germany), with the total charge measured during the whole of the voltage step. All other plots were produced using Igor Pro (WaveMetrics).

hKv1.5, sequence (P22460 whole entry): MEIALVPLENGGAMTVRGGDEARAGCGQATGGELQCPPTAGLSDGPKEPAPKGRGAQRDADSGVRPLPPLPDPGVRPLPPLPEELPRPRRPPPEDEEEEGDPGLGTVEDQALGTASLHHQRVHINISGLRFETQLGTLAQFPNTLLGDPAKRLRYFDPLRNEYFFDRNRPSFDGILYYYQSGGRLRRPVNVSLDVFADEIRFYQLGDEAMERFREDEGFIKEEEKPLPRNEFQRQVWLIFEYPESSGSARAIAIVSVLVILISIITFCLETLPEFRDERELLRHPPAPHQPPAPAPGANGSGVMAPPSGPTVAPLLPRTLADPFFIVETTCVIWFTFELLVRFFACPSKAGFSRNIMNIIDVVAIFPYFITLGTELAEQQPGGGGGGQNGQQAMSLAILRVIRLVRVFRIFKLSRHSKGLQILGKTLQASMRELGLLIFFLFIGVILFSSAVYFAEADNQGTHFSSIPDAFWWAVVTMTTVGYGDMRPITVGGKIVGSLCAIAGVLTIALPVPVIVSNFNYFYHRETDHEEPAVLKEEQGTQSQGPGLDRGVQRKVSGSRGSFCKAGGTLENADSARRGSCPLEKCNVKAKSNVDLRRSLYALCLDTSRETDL

SMILES | inhibition at 1 µM [%] | % Inhibition at 1µM [%]
COc1ccc(-c2csc3ncnc(NCc4ccccn4)c23)cc1 [Example 138, [5-(4-Methoxy-phenyl)-thieno[2,3-d]pyrimidin-4-yl]-pyridin-2-ylmethyl-amine] | 92.6 | –
CC(Nc1ncnc2scc(-c3ccccc3)c12)c1ccccn1 (centres unmarked) [Example 149, (5-Phenyl-thieno[2,3-d]pyrimidin-4-yl)-(1-pyridin-2-yl-ethyl)-amine] | 78 | –
Cc1cccnc1CNc1ncnc2scc(-c3ccccc3)c12 [Example 156, (3-methyl-pyridin-2-ylmethyl)-(5-phenyl-thieno[2,3-d]pyrimidin-4-yl)-amine] | 92 | –
CCOC(=O)c1cccnc1CNc1ncnc2scc(-c3ccccc3)c12 [Example 160, 2-[(5-Phenyl-thieno[2,3-d]pyrimidin-4-ylamino)-methyl]-nicotinic acid ethyl ester] | 80 | –
Cc1cccc(CNc2ncnc3sc(C)c(-c4ccccc4)c23)n1 [Example 166, 6-methyl-N-[(6-methylpyridin-2-yl)methyl]-5-phenylthieno[2,3-d]pyrimidin-4-amine] | 97 | –
Cc1cccc(CNc2ncnc3sc(Br)c(-c4ccccc4)c23)n1 [Example 167, 6-bromo-N-[(6-methylpyridin-2-yl)methyl]-5-phenylthieno[2,3-d]pyrimidin-4-amine] | 99 | –
COCCNc1nc(NCc2ccccn2)c2c(-c3ccccc3)csc2n1 [Example 189, N^2-(2-Methoxyethyl)-5-phenyl-N^4-(pyridin-2-ylmethyl)thieno[2,3-d]pyrimidine-2,4-diamine] | 97.4 | –
Nc1nc(NCc2ccccn2)c2c(-c3ccccc3)csc2n1 [Example 192, 5-Phenyl-N-4-pyridin-2-ylmethyl-thieno[2,3-d]pyrimidine-2,4-diamine] | 90 | –
CN(C)c1nc(NCc2ccccn2)c2c(-c3ccccc3)csc2n1 [Example 198, N^2,N^2-Dimethyl-5-phenyl-N^4-pyridin-2-ylmethyl-thieno[2,3-d]pyrimidine-2,4-diamine] | 98.1 | –
OCC(O)CNc1nc(NCc2ccccn2)c2c(-c3ccccc3)csc2n1 (centres unmarked) [Example 214, 3-{5-Phenyl-4-[(pyridin-2-ylmethyl)-amino]-thieno[2,3-d]pyrimidin-2-ylamino}-propane-1,2-diol] | 87 | –
CN1CCN(c2nc(NCc3ccccn3)c3c(-c4ccccc4)csc3n2)CC1 [Example 215, [2-(4-Methyl-piperazin-1-yl)-5-phenyl-thieno[2,3-d]pyrimidin-4-yl]-pyridin-2-ylmethyl-amine] | 82 | –
CNC(=O)Cc1nc(NCc2ccccn2)c2c(-c3ccccc3)csc2n1 [Example 287, N-Methyl-2-{5-phenyl-4-[{pyridin-2-ylmethyl)amino]thieno[2,3-d]pyrimidin-2-yl}acetamide] | 91 | –
CN(C)Cc1nc(NCc2ccccn2)c2c(-c3ccccc3)csc2n1 [Example 302, (2-Dimethylaminomethyl-5-phenylthieno[2,3-d]pyrimidin-4-yl)pyridin-2-ylmethylamine] | 76 | –
c1ccc(-c2csc3nc(CN4CCOCC4)nc(NCc4ccccn4)c23)cc1 [Example 303, (2-Morpholin-4-ylmethyl-5-phenyl-thieno[2,3-d]pyrimidin-4-yl)-pyridin-2-ylmethyl-amine] | 63 | –
CNCc1nc(NCc2ccccn2)c2c(-c3ccccc3)csc2n1 [Example 304, (2-Methylaminomethyl-5-phenyl-thieno[2,3-d]pyrimidin-4-yl)-pyridin-2-ylmethyl-amine] | 58 | –
COCc1nc(NCc2ccccn2)c2c(-c3ccccc3)csc2n1 [Example 305, (2-Methoxymethyl-5-phenylthien[2,3-d]primidin-4-yl)pyridin-2-ylmethylamine] | 94 | –
CN(C)c1ccc(-c2csc3ncnc(NCc4ccccn4)c23)cc1 [Example 315, [5-(4-Dimethylamino-phenyl)-thieno[2,3-d]pyrimidin-4-yl]-pyridin-2-ylmethyl-amine] | 98 | –
Cc1ccc(-c2csc3ncnc(NCc4ccccn4)c23)cc1C [Example 316, [5-(3,4-Dimethyl-phenyl)-thieno[2,3-d]pyrimidin-4-yl]-pyridin-2-ylmethyl-amine] | 98 | –
FC(F)(F)Oc1ccc(-c2csc3ncnc(NCc4ccccn4)c23)cc1 [Example 317, Pyridin-2-ylmethyl-[5-(4-trifluoromethoxy-phenyl)-thieno[2,3-d]pyrimidin-4-yl]-amine] | 98 | –
Cc1ccc(-c2csc3ncnc(NCc4ccccn4)c23)cc1 [Example 318, Pyridin-2-ylmethyl-(5-p-tolyl-thieno[2,3-d]pyrimidin-4-yl)-amine] | 98 | –
c1ccc(CNc2ncnc3scc(-c4ccc5c(c4)OCO5)c23)nc1 [Example 319, (5-Benzo[1,3]dioxol-5-yl-thieno[2,3-d]pyrimidin-4-yl)-pyridin-2-ylmethyl-amine] | – | 97.3
COCOc1ccc(-c2csc3ncnc(NCc4ccccn4)c23)cc1 [Example 324, [5-(4-Methoxymethoxy-phenyl)-thieno[2,3-d]pyrimidin-4-yl]-pyridin-2-ylmethyl-amine] | 93 | –
COC(=O)c1ccc(-c2csc3ncnc(NCc4ccccn4)c23)cc1 [Example 327, 4-{4-[(Pyridin-2-ylmethyl)-amino]-thieno[2,3-d]pyrimidin-5-yl}-benzoic acid methyl ester] | 83 | –
COc1ccc(-c2csc3ncnc(NCc4ccccn4)c23)cn1 [Example 328, [5-(6-Methoxy-pyridin-3-yl)-thieno[2,3-d]pyrimidin-4-yl]-pyridin-2-ylmethyl-amine] | 83 | –
Clc1ccc(-c2csc3ncnc(NCc4ccccn4)c23)c(Cl)c1 [Example 329, [5-(2,4-Dichloro-phenyl)-thieno[2,3-d]pyrimidin-4-yl]-pyridin-2-ylmethyl-amine] | 81 | –
FC(F)(F)c1cc(-c2csc3ncnc(NCc4ccccn4)c23)ccc1Cl [Example 330, [5-(4-Chloro-3-trifluoromethyl-phenyl)-thieno[2,3-d]pyrimidin-4-yl]-pyridin-2-ylmethyl-amine] | 79 | –

Source: EP1641803B1, “THIENOPYRIMIDINE DERIVATIVES AS POTASSIUM CHANNEL INHIBITORS” (Xention Limited, priority 2003, dated 2004)
